The text below walks through data of ChEMBL document CHEMBL4346729, “The discovery of novel 3-aryl-indazole derivatives as peripherally restricted pan-Trk inhibitors for the treatment of pain” (Bioorg Med Chem Lett, 2019).

A short description of data set [1]: Clearance in Sprague-Dawley rat at 1 mg/kg, iv. The note with it: in vivo. The format is ADME, organism-based.
Data set [2] concerns Rattus norvegicus. Put plainly: Unbound drug level in plasma of CFA induced Sprague-Dawley rat at 100 mg/kg, po after 1 hr. The format is ADME, organism-based. The note with it: in vivo.
Data set [3] concerns Rattus norvegicus. Put plainly: Antinociceptive activity in CFA induced thermal hypersensitivity Sprague-Dawley rat model assessed as increase in paw withdrawal latency at 0.8 mg/kg, po after 1 hr. The format is functional, organism-based.
Data set [4] has as its system Rattus norvegicus. Put plainly: Antinociceptive activity in CFA induced thermal hypersensitivity Sprague-Dawley rat model assessed as increase in paw withdrawal latency at 20 mg/kg, po after 1 hr. The data set is classed as functional, organism-based.
In data set [5] the test system is Rattus norvegicus. Briefly: Antinociceptive activity in CFA induced thermal hypersensitivity Sprague-Dawley rat model assessed as increase in paw withdrawal latency at 100 mg/kg, po after 1 hr. The format is functional, organism-based.
The target of data set [6] is Calcium/calmodulin-dependent protein kinase type II subunit delta (Homo sapiens) (UniProt Q13557). Put plainly: Inhibition of CAMK2D (unknown origin) at 20 nM using calmodulin as substrate incubated for 60 mins in presence of [33P]-ATP by scintillation counting method.
Sequence of Calcium/calmodulin-dependent protein kinase type II subunit delta (Homo sapiens) (Q13557 whole entry): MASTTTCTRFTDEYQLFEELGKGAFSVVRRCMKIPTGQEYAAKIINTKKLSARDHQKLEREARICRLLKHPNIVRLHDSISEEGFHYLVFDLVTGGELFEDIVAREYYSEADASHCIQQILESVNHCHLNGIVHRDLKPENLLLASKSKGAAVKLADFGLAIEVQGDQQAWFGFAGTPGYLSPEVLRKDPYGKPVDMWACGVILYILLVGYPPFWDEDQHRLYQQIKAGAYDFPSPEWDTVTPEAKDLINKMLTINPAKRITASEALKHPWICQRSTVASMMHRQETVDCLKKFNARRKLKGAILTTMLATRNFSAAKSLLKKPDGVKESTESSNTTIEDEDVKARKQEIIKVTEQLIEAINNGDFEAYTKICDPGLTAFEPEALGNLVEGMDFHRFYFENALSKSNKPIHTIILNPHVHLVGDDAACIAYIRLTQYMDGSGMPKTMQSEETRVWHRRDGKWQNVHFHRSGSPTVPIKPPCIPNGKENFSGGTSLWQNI
Data set [7] has as its target Cyclin-dependent kinase 2/cyclin E1 (Homo sapiens) (UniProt P24864+P24941). Put plainly: Inhibition of CDK2/Cyclin-E1 (unknown origin) at 20 nM using Phosphatidylserine as substrate incubated for 60 mins in presence of [33P]-ATP by scintillation counting method. The data set is classed as protein-complex assay.
The target of data set [8] is Interleukin-1 receptor-associated kinase 4 (Homo sapiens) (UniProt Q9NWZ3). Briefly: Inhibition of recombinant human IRAK4 C-terminal (A104 to S460) expressed in Sf9 insect cells at 20 nM using phosphatidylserine as substrate incubated for 60 mins in presence of [33P]-ATP by scintillation counting method.
Sequence of Interleukin-1 receptor-associated kinase 4 (Homo sapiens) (Q9NWZ3 whole entry): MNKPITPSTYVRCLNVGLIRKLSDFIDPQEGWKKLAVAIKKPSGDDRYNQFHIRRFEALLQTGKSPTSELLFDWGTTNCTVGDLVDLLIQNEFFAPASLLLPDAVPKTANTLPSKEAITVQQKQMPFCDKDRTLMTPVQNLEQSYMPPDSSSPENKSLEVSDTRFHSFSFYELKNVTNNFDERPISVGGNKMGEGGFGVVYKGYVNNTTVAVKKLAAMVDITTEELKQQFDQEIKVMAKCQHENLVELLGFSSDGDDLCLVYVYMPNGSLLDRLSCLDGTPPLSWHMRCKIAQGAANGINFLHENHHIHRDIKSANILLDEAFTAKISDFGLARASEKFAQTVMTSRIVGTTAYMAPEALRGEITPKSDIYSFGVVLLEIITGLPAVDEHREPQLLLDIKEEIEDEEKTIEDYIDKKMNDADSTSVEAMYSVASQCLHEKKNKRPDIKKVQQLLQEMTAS
Data set [9] concerns the target Tyrosine-protein kinase Lyn (Homo sapiens) (UniProt P07948). Briefly: Inhibition of recombinant human full length N-terminal GST/His6-tagged LYN (M1 to P512) expressed in Sf9 insect cells at 20 nM using phosphatidylserine as substrate incubated for 60 mins in presence of [33P]-ATP by scintillation counting method.
Data set [10] has as its target Mitogen-activated protein kinase 14 (Homo sapiens) (UniProt Q16539). Put plainly: Inhibition of recombinant human full length p38-alpha (M1 to S360) expressed in Escherichia coli at 20 nM using phosphatidylserine as substrate incubated for 60 mins in presence of [33P]-ATP by scintillation counting method.
For data set [11], the target named is Serine/threonine-protein kinase D2 (Homo sapiens) (UniProt Q9BZL6). Put plainly: Inhibition of PRKD2 (unknown origin) at 20 nM using phosphatidylserine as substrate incubated for 60 mins in presence of [33P]-ATP by scintillation counting method.
Sequence of Serine/threonine-protein kinase D2 (Homo sapiens) (Q9BZL6 whole entry): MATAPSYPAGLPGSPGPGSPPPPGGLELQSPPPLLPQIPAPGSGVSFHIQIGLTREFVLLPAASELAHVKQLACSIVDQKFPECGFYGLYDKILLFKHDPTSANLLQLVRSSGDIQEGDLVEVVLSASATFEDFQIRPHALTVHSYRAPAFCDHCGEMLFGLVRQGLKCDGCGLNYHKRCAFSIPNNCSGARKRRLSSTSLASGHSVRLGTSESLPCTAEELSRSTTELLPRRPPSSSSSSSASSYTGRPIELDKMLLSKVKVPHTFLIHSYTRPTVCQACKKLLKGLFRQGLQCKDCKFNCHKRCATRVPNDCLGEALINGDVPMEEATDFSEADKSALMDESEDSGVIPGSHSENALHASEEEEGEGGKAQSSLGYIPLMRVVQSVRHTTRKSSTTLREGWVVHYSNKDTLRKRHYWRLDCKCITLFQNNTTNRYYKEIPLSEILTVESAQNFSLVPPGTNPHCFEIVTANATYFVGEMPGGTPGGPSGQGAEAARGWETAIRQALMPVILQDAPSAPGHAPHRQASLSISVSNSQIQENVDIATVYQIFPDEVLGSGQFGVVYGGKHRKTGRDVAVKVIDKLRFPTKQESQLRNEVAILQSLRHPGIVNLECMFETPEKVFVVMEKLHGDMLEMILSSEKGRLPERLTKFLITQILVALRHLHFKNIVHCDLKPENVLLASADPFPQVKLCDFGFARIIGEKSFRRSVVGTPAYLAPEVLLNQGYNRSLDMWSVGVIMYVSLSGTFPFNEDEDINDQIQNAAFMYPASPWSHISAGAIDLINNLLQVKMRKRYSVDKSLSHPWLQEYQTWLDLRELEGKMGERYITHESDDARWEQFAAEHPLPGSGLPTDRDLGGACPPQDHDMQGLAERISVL
The target in data set [12] is cGMP-dependent protein kinase 1 (Homo sapiens) (UniProt Q13976). Briefly: Inhibition of PRKG1 (unknown origin) at 20 nM using cGMP as substrate incubated for 60 mins in presence of [33P]-ATP by scintillation counting method.
Sequence of cGMP-dependent protein kinase 1 (Homo sapiens) (Q13976 whole entry): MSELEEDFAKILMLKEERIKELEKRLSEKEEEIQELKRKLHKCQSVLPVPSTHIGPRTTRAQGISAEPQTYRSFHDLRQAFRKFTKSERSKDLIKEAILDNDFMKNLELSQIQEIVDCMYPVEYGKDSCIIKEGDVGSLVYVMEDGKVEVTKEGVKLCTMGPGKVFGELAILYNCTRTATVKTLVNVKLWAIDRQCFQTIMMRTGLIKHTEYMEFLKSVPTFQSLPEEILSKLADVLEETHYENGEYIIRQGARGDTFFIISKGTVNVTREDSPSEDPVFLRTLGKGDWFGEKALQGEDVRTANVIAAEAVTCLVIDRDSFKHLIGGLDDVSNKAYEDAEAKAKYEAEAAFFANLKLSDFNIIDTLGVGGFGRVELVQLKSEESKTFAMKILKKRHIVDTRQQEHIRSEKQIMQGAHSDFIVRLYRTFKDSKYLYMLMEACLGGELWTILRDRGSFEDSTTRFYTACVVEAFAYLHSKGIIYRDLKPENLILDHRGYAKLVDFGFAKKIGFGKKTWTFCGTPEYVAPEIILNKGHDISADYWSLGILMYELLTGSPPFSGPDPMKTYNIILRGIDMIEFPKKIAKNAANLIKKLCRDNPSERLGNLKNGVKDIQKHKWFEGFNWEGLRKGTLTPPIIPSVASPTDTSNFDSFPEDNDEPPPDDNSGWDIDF
Data set [13] is described as follows: Solubility of test compound. The data set is classed as physicochemical.

Values after ≈ are worked out from the molar mass of the structure shown. Active and inactive are the calls of the source. No cut-off for these calls is given here.

Sequence of Mitogen-activated protein kinase 14 (Homo sapiens) (Q16539 whole entry): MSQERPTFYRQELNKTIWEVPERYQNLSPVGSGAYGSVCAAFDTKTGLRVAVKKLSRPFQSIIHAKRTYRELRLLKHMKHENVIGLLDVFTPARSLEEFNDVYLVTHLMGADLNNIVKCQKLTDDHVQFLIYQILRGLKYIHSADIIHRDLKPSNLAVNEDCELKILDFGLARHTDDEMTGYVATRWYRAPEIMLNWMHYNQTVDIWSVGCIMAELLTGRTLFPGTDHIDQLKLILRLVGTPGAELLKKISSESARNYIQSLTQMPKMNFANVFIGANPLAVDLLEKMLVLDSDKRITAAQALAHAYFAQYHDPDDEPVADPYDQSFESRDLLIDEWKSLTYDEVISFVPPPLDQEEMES
Sequence of Tyrosine-protein kinase Lyn (Homo sapiens) (P07948 2-512 limits assumed): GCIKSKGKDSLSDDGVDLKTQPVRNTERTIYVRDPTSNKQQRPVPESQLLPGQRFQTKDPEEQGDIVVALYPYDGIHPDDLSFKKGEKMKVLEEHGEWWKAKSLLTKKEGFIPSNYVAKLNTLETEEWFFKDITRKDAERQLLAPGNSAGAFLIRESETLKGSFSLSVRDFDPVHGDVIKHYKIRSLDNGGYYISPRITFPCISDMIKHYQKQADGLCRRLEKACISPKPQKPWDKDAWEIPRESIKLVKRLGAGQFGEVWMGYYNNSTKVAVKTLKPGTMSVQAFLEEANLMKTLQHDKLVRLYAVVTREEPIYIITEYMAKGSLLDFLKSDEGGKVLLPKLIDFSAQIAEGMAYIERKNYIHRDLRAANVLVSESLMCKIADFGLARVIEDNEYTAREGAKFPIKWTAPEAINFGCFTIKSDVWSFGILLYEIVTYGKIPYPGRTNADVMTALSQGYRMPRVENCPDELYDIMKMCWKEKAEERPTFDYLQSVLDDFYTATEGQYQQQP

In general, clearance refers to the volume of plasma or blood freed of the substance per unit of time. A higher clearance goes with efficient removal. Usually inhibition stands for the change of the read-out against control, counted positive when it falls. The term solubility denotes the concentration that dissolves in the medium under given conditions. For the molecule `Cn1cc(-c2n[nH]c3ccc(NCc4cc(F)ccc4S(C)(=O)=O)cc23)cn1`, the clearance in [1] is 73.3 mL/min/kg. In addition, the “Cp(f)” value in the data set on Rattus norvegicus [2] amounted to 266.5 nM. For the same molecule, the result with Rattus norvegicus [3] was inactive. The outcome in the data set on Rattus norvegicus [4] and in the data set with Rattus norvegicus [5] was Active. Further, the inhibition is 0% in [6]; 5% in data set [7]; -8% in data set [8]; -1% in data set [9]; -8% in [10]; -8% in data set [11]. Further, the inhibition in data set [12] is -5%. In data set [13], this molecule returned a solubility of 141 µM (≈ 56.2 µg/mL).
